What was measured:
normal human fibroblasts = experiment: Type I collagen synthesis of normal human fibroblasts (ELISA of culture supernatant; protein by BCA method); format: cell-based; conditions: for Type I Collagen, Mean S.D.: 24-hour culture, n = 6, untreated control 7.03 ± 0.25
Procedure: The action of 1,5-AG on the synthesis of type I collagen of dermal fibroblasts is evaluated. Specifically, normal human fibroblasts were spread on a 96-well microplate using Dulbecco's modified eagle medium (DMEM) containing 0.5% fetal bovine serum (FBS). The fibroblasts were cultured at 37° C. for 24 hours, and thereafter the medium was exchanged with a 0.5% FBS-containing DMEM containing a given concentration of samples. As a positive control (P.C.), the same treatment was carried out with magnesium ascorbyl phosphate. After the 24-hour culture in the sample-containing medium, the culture supernatant was collected and subjected to ELISA. Also, the amount of protein was measured in accordance with bicinchoninic acid (BCA) method with PIERCE (manufactured by Pierce Biotechnology Inc.).
The culture supernatant and the collagen solutions for calibration curve were each dispensed in each well of high-adsorbent ELISA plate, and allowed to coat at 4° C. over one day and night. Thereafter, the coated plate was blocked at 37° C. for 1 hour with a 1% bovine serum albumin (BSA) solution. The primary antibody reaction was carried out by diluting Anti-Human Collagen Type I antibody (manufactured by Bio-Rad Laboratories, Inc., Rabbit) with a 0.3% BSA solution, and the dilution was added to each well and allowed to react at 37° C. for 1 hour. The secondary antibody reaction was carried out by diluting Histofine MAX-PO® (manufactured by NICHIREI, Rabbit) with a phosphate buffer, and the dilution was added to each well, and allowed to react at 37° C. for 1 hour. Next, 0.3 mg/mL of phosphate-citrate buffer (0.1 M, pH 4.0) containing 2,2′-azinobis(3-ethylbenzothiazoline-6-sulfonic acid)diammonium salt (ABTS) and a 0.03% hydrogen peroxide was added to each well and allowed to react for 20 minutes, and the absorbance of the reaction mixture was measured at 405 nm with a microplate reader.
The amount of the collagen in the culture supernatant was calculated from the calibration curve prepared from commercially available collagen. By dividing the amount of collagen in the medium by the amount of proteins in all the cells, the amount of collagen synthesized per unit protein amount was calculated. The amount of collagen synthesized at each concentration was subjected to a significance test using a Student-t test, and a difference with an untreated control was evaluated.

skin surface of human = experiment: Moisturizing effect: water content of skin surface in short-term use test of human volunteers (SKICON200); format: in vivo; conditions: for Water Content of Skin Surface, Mean (%) SD, relative value where the initial value was defined as 100%: 2.5 μL/cm^2, medial part of forearm, n = 4
Procedure: The moisturizing effects of the 1,5-AG are evaluated by a short-term use test of human volunteers. Specifically, with 5 males of ages of 26 to 34 as test individuals, an aqueous solution of a sample listed in Table 2 in a given concentration was applied in an amount of 2.5 μL/cm^2 at a medial part of forearm, and the water content of the skin surface was measured in accordance with the following method.
<Measurement of Water Content of Skin Surface>
Each test individual washed his medial part of forearm with a given detergent, and was conditioned for 15 minutes in a thermohygrostat (room temperature: 22° C., humidity: 45%). Thereafter, an initial value of the water content of the skin surface was measured with SKICON200 (manufactured by I.B.S. Co., Ltd., corneometer). Next, each of the test samples and purified water were coated according to a coating method. Further, uncoated sites were set. Water contents were measured immediately after the sample coating, after 15 minutes, after 30 minutes, and after 45 minutes. The water content of the uncoated sites was measured matching the measurement time at the sample-coated sites. The change in the water contents of each site to be tested was expressed in a relative value where an initial value was defined as 100%. The difference in the water content of skin surface in each test individual before and after the use of test samples was subjected to a significance test according to a Student-t test. The data for test individuals of which water contents of skin surface of the uncoated sites increased with passage of time were discarded as abnormal values, and the results calculated using the measurement values of four individuals are shown in Table 2 and FIG. 2.

Row | Compound | Type I Collagen, Mean S.D. (normal human fibroblasts; 313 μg/mL sample) [ng/μg protein] | Type I Collagen, Mean S.D. (normal human fibroblasts; 625 μg/mL sample) [ng/μg protein] | Type I Collagen, Mean S.D. (normal human fibroblasts; 1250 μg/mL sample) [ng/μg protein] | amount of type I collagen synthesized in the normal human fibroblasts (normal human fibroblasts; versus untreated control, Student-t test) | Water Content of Skin Surface, Mean (%) SD, relative value where the initial value was defined as 100% (skin surface of human; 2% aqueous solution, After 15 min) [%] | Water Content of Skin Surface, Mean (%) SD, relative value where the initial value was defined as 100% (skin surface of human; 2% aqueous solution, After 30 min) [%] | Water Content of Skin Surface, Mean (%) SD, relative value where the initial value was defined as 100% (skin surface of human; 2% aqueous solution, After 45 min) [%] | Water Content of Skin Surface, Mean (%) SD, relative value where the initial value was defined as 100% (skin surface of human; 2% aqueous solution, Immediately after Coating) | action on the water content of skin surface (moisturizing property) (skin surface of human; test sample of 2% 1,5-AG, human volunteers) | Water Content of Skin Surface, Mean (%) SD, relative value where the initial value was defined as 100% (skin surface of human; 1% aqueous solution, After 15 min) [%] | Water Content of Skin Surface, Mean (%) SD, relative value where the initial value was defined as 100% (skin surface of human; 1% aqueous solution, After 30 min) [%] | Water Content of Skin Surface, Mean (%) SD, relative value where the initial value was defined as 100% (skin surface of human; 1% aqueous solution, After 45 min) [%] | Water Content of Skin Surface, Mean (%) SD, relative value where the initial value was defined as 100% (skin surface of human; 1% aqueous solution, Immediately after Coating)
1 | OC[C@H]1OC[C@H](O)[C@@H](O)[C@@H]1O [1,5-AG, 1,5-anhydro-D-glucitol] | 7.81 ± 0.60 | 8.28 ± 0.50 | 8.31 ± 0.49 | significantly increased | 154.2 ± 12.3 | 180.3 ± 36.2 | 176.7 ± 15.8 | 2,535.4 ± 749.6% | action of increasing the water content of skin surface |  |  |  | 
2 | Sodium Hyaluronate [reference compound] |  |  |  |  |  |  |  |  |  | 122.6 ± 15.7 | 116.9 ± 23.7 | 130.1 ± 10.3 | 3,101.8 ± 1,716.3%

From US20160022556A1, “1,5-ANHYDRO-D-GLUCITOL-CONTAINING COLLAGEN PRODUCTION ACCELERATOR” (NATIONAL UNIVERSITY CORPORATION UNIVERSITY OF TOYOMA, priority 2013, published 2016)
